Test results published in the NIST ThermoML archive (doi:10.1016/j.tca.2017.12.010).
± gives the expanded uncertainty stated by the source. Values belong to the compound of their own block, whether it stands above or below them.

Tests used:
[1] = Liquid, DSC
[2] = Boiling temperature at pressure P; conditions: Liquid, DSC

SMILES: CC(C)O [propan-2-ol]
- vapor or sublimation pressure ([1]; 355.71 K): 101.3 ± 7.9 kPa

SMILES: Cc1ccccc1 [toluene]
- vapor or sublimation pressure ([1]; 383.6 K): 101.3 ± 7.9 kPa

Continued, values first:

- Boiling temperature at pressure P ([2]; 92.9 kPa): 97.82 ± 1.6 °C
- Boiling temperature at pressure P ([2]; 93 kPa): 97.84 ± 1.6 °C
- Boiling temperature at pressure P ([2]; 93.5 kPa): 97.94 ± 1.6 °C
- Boiling temperature at pressure P ([2]; 94.1 kPa): 98.06 ± 1.6 °C
- Boiling temperature at pressure P ([2]; 101.3 kPa): 100.01 ± 1.6 °C
- Boiling temperature at pressure P ([2]; 395 kPa): 143.21 ± 1.6 °C
- Boiling temperature at pressure P ([2]; 585 kPa): 157.83 ± 1.6 °C
- Boiling temperature at pressure P ([2]; 592 kPa): 158.51 ± 1.6 °C
- Boiling temperature at pressure P ([2]; 791 kPa): 169.38 ± 1.6 °C
- Boiling temperature at pressure P ([2]; 1091 kPa): 183.29 ± 1.6 °C
- Boiling temperature at pressure P ([2]; 1392 kPa): 194.26 ± 1.6 °C
- Boiling temperature at pressure P ([2]; 1689 kPa): 203.20 ± 1.6 °C
- Boiling temperature at pressure P ([2]; 2088 kPa): 213.26 ± 1.6 °C
SMILES: O [water]

- vapor or sublimation pressure ([1]; 353.82 K): 101.3 ± 7.9 kPa
SMILES: C1CCCCC1 [cyclohexane]

- vapor or sublimation pressure ([1]; 337.78 K): 101.3 ± 7.9 kPa
SMILES: CO [methanol]
